The record followed here is publication PMC4601023, “Novel anticancer agent, SQAP, binds to focal adhesion kinase and modulates its activity” (Scientific Reports, 2015).

For experiment [1], the system named is Akt phosphorylation at S473 in HUVEC. Kind of experiment: Akt phosphorylation in HUVEC, Western blotting. Particulars: treated for 21 h, 10 µM. Type of experiment: cell-based, human. The text has this:
Furthermore, we looked at FAK signaling pathway to validate our results. Paxillin binds to FAK 919–938 residues which is a sequence contained within the region where SQAP is predicted to bind. Binding between paxillin and FAK results in paxillin phosphorylation at Y118[35][36]. Thus, we examined paxillin phosphorylation. […] Additionally, we studied Akt phosphorylation at S473 on account of FAK is a known factor in control of Akt activity. We observed that Akt phosphorylation was diminished when treated with SQAP or SQMG for 21 h (see Supplementary Fig. S3).
Cells were harvested and solubilized in RIPA buffer (20 mM Tris-HCl, pH 7.5, 1% Sodium deoxycholate, 150 mM NaCl, 5 mM EDTA, 1% Triton X-100, 0.1% SDS, 0.1%, 1 mM PMSF, 1 mM vanadate and 1 μg/mL leupeptin). Protein quantification was determined using the DC protein assay kit (Bio-Rad, Hercules, CA, USA). A total of 15 μg of each protein sample were separated by SDS–PAGE gels and blotted onto polyvinylidene difluoride membranes (Merck, Kenilworth, NJ, US). After blocking for 1 h with Blocking-One (Nacalai Tesque, Kyoto, Japan), proteins were detected by incubating the membranes with the primary antibody at 4 °C overnight (anti-Y397 2:2000, anti-Y925 5:2000 and anti-FAK 0.5:2000) followed by incubation with horseradish peroxidase-conjugated secondary antibodies at room temperature for 1 h (anti-mouse 0.5:2000 and anti-rabbit 0.4:2000). […]
In general terms: A western blot detects proteins with antibodies after separation by electrophoresis.

Experiment [2] deals with human lung small cell carcinoma, Lu-65. The experiment in a line: Tumor xenograft, SQAP plus X-irradiation. Particulars: 2 mg/kg i.v. five injections plus X-irradiation 8 Gy/fraction x 2; Supplementary Fig. S1, also ref 12. The experiment is classed as in vivo, KSN nude mice. As for the experimental part: Cell lines and animal studies: A human lung small cell carcinoma, Lu-65, was obtained from the Cell resource Center for Biomedical Research (Sendai, Japan) and maintained in RPMI-1640 medium supplemented with 10% fetal bovine serum, 100 units/ml penicillin, 100 μg/ml streptomycin, and 1 mM sodium pyruvate at 37 °C in 5% CO2 humidified atmosphere. Viable tumor cell (1 × 106) were implanted subcutanceously into the right hind legs of male KSN nude mice (6–8 weeks old). After the tumor volume reached 50 to 100 mm3, the tumor were treated and the tumor growth was monitored by palpation. The size of the palpable tumors was measured using calipers every two days. The tumor volume (V, […]) was estimated based on the formula as follows; (minor axis)^2 × (major axis) × 0.5.
Treatments: Synthesized SQAP was prepared one day before experimentation, and dissolved in saline at the appropriate concentrations. To analyze the tumor radioresponse, 2 mg/kg SQAP (dissolved in 100 μl of saline) was administered intravenously to the ‘SQAP’ group and ‘Combination’ group (adiministered five times daily from days zero to four). The same amount of saline was injected in the ‘control’ group and ‘X-irradiation’ group. […]

For the next experiment, the system named is HUVEC cells. Kind of experiment: In vitro cell migration assay (Oris kit), HUVEC. Type of experiment: cell-based, human. Particulars: 96 well cell migration kit. The procedure:
(§1) Figure 6 SQAP inhibits cell migration in vitro. (A) HUVEC cells were seeded and grown to 100% confluence in 60-mm diameter dishes. After generating a single scratch in the monolayer, the cells were cultured for 11 h in medium containing 1% FBS and VEGF (50 ng/mL) in the presence or absence of SQAP. Photographs were taken immediately after 11 h. (B) The change in wound width was measured as described in the Materials and Methods. (C) A549 cells were seeded and grown to 100% confluence in 60-mm diameter dishes. After generating a single scratch in the monolayer, the cells cultured for the 25 h in media containing 1% FBS and fibronectin (10 μg/ml) treated with SQAP or vehicle. Photographs were collected immediately after wounding and after 25 h. (D) The change in wound width was measured as described in the Materials and Methods. Cell migration was additionally examined in 96 well plates. HUVEC (E) and A549 cells (F) were seeded and grown into confluence overnight. […] The fluorescent emission signal was obtained with a plate reader. […]
(§2) Wound healing was additionally assessed in HUVEC or A549 cells using a cell migration kit (Oris, Madison, WI, USA) as described by the manufacturer. […] The fluorescence emission signal in the migration zones was measured on a Wallac Arvo 5x microplate reader (Perkin Elmer, Waltham, MA, USA).

The next experiment concerns A549 cells. Kind of experiment: In vitro cell migration assay (Oris kit), A549. The experiment is classed as cell-based, human. Particulars: A549, 96 well cell migration kit. As for the experimental part:
as §1, §2

As to `CCCCCCCCCCCCCCCCCC(=O)OCCCO[C@H]1O[C@H](CS(=O)(=O)O)[C@@H](O)[C@H](O)[C@H]1O` [SQAP, sulfoquynovosylacylpropanediol], the “Akt phosphorylation at S473” value in experiment [1] is “diminished”. In experiment [2], the “tumor arrest in combination with irradiation” value is on record as “synergistically enhanced tumor arrest”. Further, the cell migration entry with HUVEC cells and in the experiment on A549 cells was “arrested” each time.
